Reference: PubChem BioAssay AID652148 (Molecular Libraries Program, Specialized Chemistry Center, …, 2013)
Calls of active or inactive are those of the source. How the calls were made is not given here.

Target: Rho GTPase-activating protein 1 (Homo sapiens) (UniProt Q07960)
Test: ARHGAP1 GAP activity inhibitors on Rac1 – biochemical, Biomol green phosphate read-out, selectivity assay for MgcRacGAP inhibitor project, dose response (AID 652148)
Settings: p50RhoGAP-stimulated Rac1 GTP hydrolysis

Sequence of Rho GTPase-activating protein 1 (Homo sapiens) (Q07960 whole entry, looked up): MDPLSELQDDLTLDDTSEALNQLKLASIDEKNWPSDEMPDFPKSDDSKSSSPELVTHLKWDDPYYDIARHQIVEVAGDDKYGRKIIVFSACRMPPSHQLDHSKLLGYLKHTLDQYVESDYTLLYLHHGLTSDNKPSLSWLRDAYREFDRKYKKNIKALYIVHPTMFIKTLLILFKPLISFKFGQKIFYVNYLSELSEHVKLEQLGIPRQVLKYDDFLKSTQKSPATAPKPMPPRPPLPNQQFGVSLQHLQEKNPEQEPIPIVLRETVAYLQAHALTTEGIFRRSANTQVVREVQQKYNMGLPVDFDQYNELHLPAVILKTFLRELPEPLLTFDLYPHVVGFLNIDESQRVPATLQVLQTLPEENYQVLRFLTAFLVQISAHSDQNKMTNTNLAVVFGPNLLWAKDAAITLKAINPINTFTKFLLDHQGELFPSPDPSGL

| SMILES | IC50 [µM] |
| --- | --- |
| Cn1ccc(=Nc2ccc(NC(=O)c3ccc(N=c4ccn(C)c5ccc([N+](=O)[O-])cc45)cc3)cc2)cc1 | 22.2 |
| O=C1C=CC(=O)c2c(O)c(N3CCN(CCOCCO)CC3)c(Br)c(O)c21 | 32.6 |
| O=C1C=CC(=O)c2c(O)c(N3CCN(CCO)CC3)c(Cl)c(O)c21 | 36.5 |
| O=C(O)c1cc(N2N=C(C(F)(F)F)/C(=C/C=C/c3ccco3)C2=O)ccc1Cl | 4.68 |
| CN(C)c1ncc(C2=C(Cl)C(=O)C(N3CCCC3)=C(Cl)C2=O)s1 | 10.7 |
| COc1ccc(-n2sc3ccc(F)cc3c2=O)cc1 | 15 |
| O=c1c2cc(F)ccc2sn1-c1ccccc1 | 2.06 |
| CN(C)c1ccc(C=c2c3cc(O)ccc3n3c2cc(-c2ccccc2)[n+]3C)cc1 | 36.2 |
| CN(C)c1nc(=NCc2cccs2)ss1 | 14.7 |
| O=c1c2cc(F)ccc2sn1-c1ccccc1Cl | 24.5 |
| O=C1C=CC(=O)N1c1ccccc1N1C(=O)C=CC1=O | 15.7 |
| O=c1c2ccccc2sn1-c1cccc(Cl)c1 | 11.2 |
| CCN(CC)c1ccc(C(=C2C=CC(=[N+](CC)CC)C=C2)c2ccc(N(CC)CC)cc2)cc1 | 22.1 |
| CSc1nc(N)c(N=Nc2ccc([As](=O)(O)O)cc2)c(=O)[nH]1 | 3.09 |
| O=C1NC(=S)N(c2ccccc2)C(=O)/C1=C/c1ccco1 | 3.99 |
| O=C1C(Cl)=C(NC(=O)c2ccccc2)C(=O)C(Cl)=C1NC(=O)c1ccccc1 | 46 |
| CC1OC(CC(=O)O)CC2=C1C(=O)c1c(O)cccc1C2=O (stereo unspecified) | 8.81 |
| Cc1cc(C)c2c(=N)c3ccccc3n(CCCCCCCCn3c4ccccc4c(=N)c4c(C)cc(C)nc43)c2n1 | 22.2 |
| CC(=O)Nc1ccc2sn(-c3ccccc3)c(=O)c2c1 | 22.3 |
| O=c1c2ccccc2sn1-c1ccc(Cl)cc1 | 12.3 |
| O=c1c2ccccc2sn1-c1ccc(F)cc1 | 35.4 |
| CCN1CCN(Cc2ccc(NC(=O)c3ccc(C)c(/C=C/c4cnc(Nc5cc(N6CCNCC6)nc(C)n5)cn4)c3)cc2C(F)(F)F)CC1 | 54.1 |
| O=C(O)C1CSC(c2ccco2)N1 (stereo unspecified) | 16.1 |
| O=C1C(=Cc2ccco2)CCC1=Cc1ccco1 | 26.8 |
| O=C(Nc1ccccc1Cl)/C(Cl)=C(\Cl)S(=O)c1ccccc1 (stereo unspecified) | 20.7 |
| O=C(O)c1cccc(-n2sc3ccccc3c2=O)c1 | 10.3 |

Same assay, conditions: p50RhoGAP-stimulated Rac1 GTP hydrolysis, at 100 µM (top of the series)

| SMILES | inhibition |
| --- | --- |
| O=C1C(SCCO)=C(SCCO)C(=O)c2ccccc21 | inactive |
| COc1ccc(-n2sc3ccccc3c2=O)cc1 | inactive |
| Cc1ccc(C)c(-n2sc3ccc(F)cc3c2=O)c1 | inactive |
| Nc1n[nH]c(=S)n1/N=C1/C(=O)Nc2ccccc21 | inactive |
| Nc1ccc(OCc2ccco2)cc1 | inactive |
| O=c1c2ccccc2sn1-c1ccc(Cl)cc1Cl | inactive |
| COc1ccc(Nc2ccc3ccccc3c2)cc1 | inactive |
| O=c1c2ccc(F)cc2sn1-c1ccccc1 | inactive |
| Cc1cc(N)c2cc(NC(=O)/C=C/c3ccccc3Cl)ccc2n1 | inactive |
| COC(=O)c1cccc(-n2sc3ccccc3c2=O)c1 | inactive |
| O=C(O)c1cc(N2C(=O)C=CC2=O)cc(N2C(=O)C=CC2=O)c1 | inactive |
| Cc1ccc(-n2sc3cc(F)ccc3c2=O)c(C)c1 | inactive |
| CC1=NNC(=O)C1Br (stereo unspecified) | inactive |
| CN(C)c1ccc(/C=C/c2cc[n+](C)c3ccccc23)cc1 | inactive |
| C[n+]1c(-c2ccc(C=NNC(=O)c3ccc(C(=O)NN=Cc4ccc(-c5cn6ccccc6[n+]5C)cc4)cc3)cc2)cn2ccccc21 | inactive |
| O=c1c2ccccc2sn1-c1ccccc1F | inactive |
| Cc1c(Cl)sn(-c2ccc(Cl)cc2)c1=O | inactive |
| COc1ccc(/C=N/Nc2cc(C)nc3ccc(OC)cc23)c(OC)c1 | inactive |
| O=c1c2sc3ccccc3c2[nH]c(=S)n1CCN1CCOCC1 | inactive |
| COc1ccc(NC2CCCN(C(=O)C3(C)CCCCC3)C2)cc1 (stereo unspecified) | inactive |
